Data on 10 molecules can be found in patent US20140023611A1 (priority 2010, published 2014).

For one data set, the target named is T1, rat NaP2b (SLC34A2) (Rattus norvegicus, UniProt Q9JJ09).
T1 construct: host or cells: HEK293
T1 sequence (Q9JJ09 1-695): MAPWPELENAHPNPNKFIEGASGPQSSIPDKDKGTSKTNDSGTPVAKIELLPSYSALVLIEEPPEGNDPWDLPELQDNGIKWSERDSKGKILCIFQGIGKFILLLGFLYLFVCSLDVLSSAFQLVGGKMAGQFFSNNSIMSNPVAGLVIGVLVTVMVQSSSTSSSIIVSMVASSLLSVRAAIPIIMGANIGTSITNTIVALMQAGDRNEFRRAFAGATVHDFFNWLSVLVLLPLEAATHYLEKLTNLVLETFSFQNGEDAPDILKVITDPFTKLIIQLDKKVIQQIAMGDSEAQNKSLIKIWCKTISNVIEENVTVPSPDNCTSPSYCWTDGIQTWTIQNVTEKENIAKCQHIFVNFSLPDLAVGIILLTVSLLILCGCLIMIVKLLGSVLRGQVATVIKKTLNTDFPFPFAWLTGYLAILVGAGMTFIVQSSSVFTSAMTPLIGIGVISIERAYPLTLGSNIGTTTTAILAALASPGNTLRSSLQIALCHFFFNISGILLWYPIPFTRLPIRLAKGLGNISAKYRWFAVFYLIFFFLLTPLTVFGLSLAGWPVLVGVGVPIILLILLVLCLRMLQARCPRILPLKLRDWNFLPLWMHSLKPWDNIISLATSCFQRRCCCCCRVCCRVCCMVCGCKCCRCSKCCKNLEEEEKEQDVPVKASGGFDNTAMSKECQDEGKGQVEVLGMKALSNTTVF
Briefly: Inhibition of NaP2b-mediated Pi (33P) uptake in transfected HEK293 cells, rat NaP2b. Particulars: 33P Pi uptake, 0.1 mM phosphate, value given as pIC50 range. The data set is classed as cell-based. Summed up: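 HEK293 cells were transiently transfected with NaP2b cDNA using Lipofectamine and grown near confluence. Compounds were tested at twelve concentrations from 0.1 nM to 30 uM in duplicate, and 33P-phosphate uptake was counted by scintillation after lysis. Results are expressed as pIC50.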

The nature of data set [1]: Determination of compound Cmax and AUC after oral gavage (plasma LC-MS/MS). The data set is classed as in vivo, Sprague-Dawley rats. The conditions noted are these: Sprague-Dawley, rat, plasma, po, Structure (I) examples, Table 15, actual oral dose 3-15 mg/kg, plasma 0.5-4 h. Here is the method:
Sprague-Dawley rats were orally gavaged with test article at a nominal dose of 2.5 or 10 mg/kg and blood was collected at 0.5, 1, 2 and 4 h. Blood samples were processed to plasma using K2EDTA as an anticoaglulant. Plasma samples were treated with acetonitrile containing an internal standard, precipitated proteins removed by centrifugation. Supernatants were analyzed by LC-MS/MS and compound concentrations were determined by interpolation from a standard curve prepared in plasma. All compounds were orally dosed at the dosage shown, and pharmacokinetic parameters determined.
(§1) Sprague-Dawley rats were orally gavaged with test article at a nominal dose of 2.5 or 10 mg/kg and blood was collected at 0.5, 1, 2 and 4 h. Blood samples were processed to plasma using K2EDTA as an anticoaglulant. Plasma samples were treated with acetonitrile containing an internal standard, precipitated proteins removed by centrifugation. Supernatants were analyzed by LC-MS/MS and compound concentrations were determined by interpolated from a standard curve prepared in plasma. All compounds were orally dosed at the dosage shown, and pharmacokinetic parameters determined.
as §1

Data set [2] is described as follows: Stability of compounds in simulated gastric fluid (SGF). The data set is classed as in vitro ADME. Particulars: simulated gastric fluid (3 mg/mL pepsin), incubation time 6 hr, relative to t=0. How it is done:
(§2) Test compounds were incubated at […] in simulated gastric fluid (SGF; standard USP solution with 3 mg/mL pepsin) or simulated intestinal fluid (SIF; standard USP solution with 3 mg/mL pancreatin) for 3 hr or 6 hr. HPLC-UV or HPLC-MS were used to determine test compound levels using peak area %. Results (Table 14) were reported as the percentage of test compound remaining after incubation in a given condition relative to test compound present at t=0 in the same condition.

Data set [3] in a line: Stability of compounds in simulated intestinal fluid (SIF). The conditions noted are these: simulated intestinal fluid (3 mg/mL pancreatin), incubation time 6 hr, relative to t=0. The data set is classed as in vitro ADME. Here is the method:
as §2

The target of another data set is T2, human NaP2b (SLC34A2) (Homo sapiens, UniProt O95436).
T2 construct: host or cells: HEK293
T2 sequence (O95436 1-690): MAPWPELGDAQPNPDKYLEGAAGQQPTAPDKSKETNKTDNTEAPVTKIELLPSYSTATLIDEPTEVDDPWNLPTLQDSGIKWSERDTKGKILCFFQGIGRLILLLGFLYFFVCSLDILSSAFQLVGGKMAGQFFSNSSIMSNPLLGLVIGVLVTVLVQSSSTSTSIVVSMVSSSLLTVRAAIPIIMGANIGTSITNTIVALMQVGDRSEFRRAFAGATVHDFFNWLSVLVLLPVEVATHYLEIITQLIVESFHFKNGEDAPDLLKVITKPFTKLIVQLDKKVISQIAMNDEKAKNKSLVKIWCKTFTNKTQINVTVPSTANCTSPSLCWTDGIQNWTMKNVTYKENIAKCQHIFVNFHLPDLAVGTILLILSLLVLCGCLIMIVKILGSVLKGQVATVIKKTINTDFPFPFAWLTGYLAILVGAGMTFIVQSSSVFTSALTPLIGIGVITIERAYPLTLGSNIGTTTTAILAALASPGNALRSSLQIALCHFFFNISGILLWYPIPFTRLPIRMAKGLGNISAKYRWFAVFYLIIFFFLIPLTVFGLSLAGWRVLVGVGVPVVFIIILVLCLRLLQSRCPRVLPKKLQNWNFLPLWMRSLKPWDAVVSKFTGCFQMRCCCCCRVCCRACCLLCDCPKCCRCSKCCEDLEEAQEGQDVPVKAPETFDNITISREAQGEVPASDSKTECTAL
Briefly: Inhibition of NaP2b-mediated Pi (33P) uptake in transfected HEK293 cells, human NaP2b. Particulars: read-out: pIC50 range for human NaP2b (converted). It is filed as cell-based. Summed up: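 HEK293 cells transiently transfected with human NaP2b (Thr inserted after residue 37, N39D), endogenous PiT transport pharmacologically silenced. Sodium or choline buffer, pH 7.4, with 100 uM KH2PO4, 33P orthophosphate and compound (0.1 nM–30 uM, twelve concentrations, duplicate). 3-30 min at room temperature, scintillation counting, pIC50 derived.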

Turning to `CN(CCOCCOCCOCCC(=O)N1CCN(CCOCCO)CC1)C(=O)c1cccc(C(=O)Nc2ccc(N3CCCCC3)cc2-c2cc(C(=O)N[C@H]3CCCc4ccccc43)ccn2)c1` [Example 250, 1-N-(2-{2-[2-(3-{4-[2-(2-hydroxyethoxy)ethyl]piperazin-1-yl}-3-oxopropoxy)ethoxy]ethoxy}ethyl)-1-N-methyl-3-N-[4-(piperidin-1-yl)-2-(4-{[(1S)-1,2,3,4-tetrahydronaphthalen-1-yl]carbamoyl}pyridin-2-yl)phenyl]benzene-1,3-dicarboxamide], the IC50 against rat NaP2b (SLC34A2) was 1000 to 7940 nM. Also, in data set [1], the exposure (AUC) was less than 10 ng·h/mL and the Cmax was less than 10 ng/mL. Further, the “% remaining, SGF” value in data set [2] was greater than 80%. Besides, the “% remaining, SIF” value in data set [3] is recorded as greater than 80%.

In turn, `CCN(CC)c1ccc(NC(=O)c2cccc(CSCCOCCOCCOCCOCCC(=O)NCCOCCOCCOCCOCCOCCOCCOCCOC)c2)c(-c2cc(C(=O)NCc3cccc(C(F)(F)F)c3)ccn2)c1` [Example 165, 2-(5-(diethylamino)-2-(3-(27-oxo-2,5,8,11,14,17,20,23,30,33,36,39-dodecaoxa-42-thia-26-azatritetracontan-43-yl)benzamido)phenyl)-N-(3-(trifluoromethyl)benzyl)isonicotinamide] gave an IC50 against rat NaP2b (SLC34A2) of 1000 to 7940 nM. In data set [1], this molecule returned an AUC of less than 30 ng·h/mL and a Cmax of less than 10 ng/mL. In data set [2], the “% remaining, SGF” value was greater than 80%. Moreover, in data set [3], the “% remaining, SIF” value was greater than 80%.

For the molecule `CN(CCN1CCOCC1)C(=O)CCOCCOCCOCCOCCSCc1cccc(C(=O)Nc2ccc(N3CCCCC3)cc2-c2cc(C(=O)NCc3cccc(C(F)(F)F)c3)ccn2)c1` [Example 150, 2-(2-(3-(18-methyl-20-morpholino-17-oxo-5,8,11,14-tetraoxa-2-thia-18-azaicosyl)benzamido)-5-(piperidin-1-yl)phenyl)-N-(3-(trifluoromethyl)benzyl)isonicotinamide], the IC50 at rat NaP2b (SLC34A2) was 10000 to 31600 nM. Besides, in data set [1], the AUC is less than 10 ng·h/mL and the Cmax was less than 10 ng/mL. Further, the “% remaining, SGF” value in data set [2] is greater than 80%. The “% remaining, SIF” value in data set [3] is given as greater than 80%.

Take `CCN(CC)c1ccc(NC(=O)c2cccc(C(=O)N(C)CCN3CCOCC3)c2)c(-c2cc(C(=O)N[C@H]3CCCc4ccccc43)ccn2)c1` [Example 131, (S)—N^1-(4-(diethylamino)-2-(4-((1,2,3,4-tetrahydronaphthalen-1-yl)carbamoyl)pyridin-2-yl)phenyl)-N^3-methyl-N^3-(2-morpholinoethyl)isophthalamide]: the IC50 on rat NaP2b (SLC34A2) is less than 1000 nM. In data set [1], this molecule showed an AUC of less than 50 ng·h/mL and a Cmax of less than 30 ng/mL. For the same molecule, the “% remaining, SGF” value in data set [2] is reported as greater than 80%. Further, in data set [3], the “% remaining, SIF” value is recorded as greater than 80%.

Turning to `CN(CCOCCOCCOCCC(=O)O)C(=O)Cc1cccc(SCc2cccc(C(=O)Nc3ccc(N4CCCCC4)cc3-c3cc(C(=O)N[C@H]4CCCc5ccccc54)ccn3)c2)c1` [Example 235, (S)-3-methyl-2-oxo-1-(3-(3-(4-(piperidin-1-yl)-2-(4-(1,2,3,4-tetrahydronaphthalen-1-ylcarbamoyl)pyridin-2-yl)phenylcarbamoyl)benzylthio)phenyl)-6,9,12-trioxa-3-azapentadecan-15-oic acid], at rat NaP2b (SLC34A2), the IC50 was less than 1000 nM. Moreover, the “% remaining, SGF” value in data set [2] is on record as greater than 80%. For the same molecule, the “% remaining, SIF” value in data set [3] is given as greater than 80%.

With `CCN(CC)c1ccc(NC(=O)c2cccc(C(=O)N(C)CCN3CCCN(C(=O)OCCOCCOCCOCCOCCOCCOCCOCCOCCOCCOCCOC)CC3)c2)c(-c2cc(C(=O)N[C@H]3CCCc4ccccc43)ccn2)c1` [Example 199, (S)-2,5,8,11,14,17,20,23,26,29,32-undecaoxatetratriacontan-34-yl 4-(2-(3-((4-(diethylamino)-2-(4-((1,2,3,4-tetrahydronaphthalen-1-yl)carbamoyl)pyridin-2-yl)phenyl)carbamoyl)-N-methylbenzamido)ethyl)-1,4-diazepane-1-carboxylate], in data set [1], the AUC was less than 10 ng·h/mL and the Cmax was less than 10 ng/mL. The “% remaining, SGF” value in data set [2] was greater than 80%. Besides, the “% remaining, SIF” value in data set [3] is greater than 80%.

As to `O=C(O)Cc1cccc(SCc2cccc(C(=O)Nc3ccc(N4CCCCC4)cc3-c3cc(C(=O)N[C@H]4CCCc5ccccc54)ccn3)c2)c1` [Example 234, (S)-2-(3-(3-(4-(piperidin-1-yl)-2-(4-(1,2,3,4-tetrahydronaphthalen-1-ylcarbamoyl)pyridin-2-yl)phenylcarbamoyl)benzylthio)phenyl)acetic acid], the IC50 at rat NaP2b (SLC34A2) and at human NaP2b (SLC34A2) was less than 1000 nM in each case. Further, the AUC in data set [1] was less than 30 ng·h/mL. In data set [1], this molecule had a Cmax of less than 10 ng/mL.

On rat NaP2b (SLC34A2), `CN(CCN1CCNC(=O)C1)C(=O)c1cccc(C(=O)Nc2ccc(N3CCCCC3)cc2-c2cc(C(=O)N[C@H]3CCCc4ccccc43)ccn2)c1` [Example 215, (S)—N1-methyl-N1-(2-(3-oxopiperazin-1-yl)ethyl)-N3-(4-(piperidin-1-yl)-2-(4-(1,2,3,4-tetrahydronaphthalen-1-ylcarbamoyl)pyridin-2-yl)phenyl)isophthalamide] gave an IC50 of less than 1000 nM. The IC50 on human NaP2b (SLC34A2) is less than 1000 nM. Also, in data set [1], the AUC is less than 10 ng·h/mL and the Cmax was less than 10 ng/mL.

In the case of `CN1CCN(CCN(C)C(=O)c2cccc(C(=O)Nc3ccc(N4CCCCC4)cc3-c3cc(C(=O)N[C@H]4CCCc5ccccc54)ccn3)c2)CC1=O` [Example 216, (S)—N1-methyl-N1-(2-(4-methyl-3-oxopiperazin-1-yl)ethyl)-N3-(4-(piperidin-1-yl)-2-(4-(1,2,3,4-tetrahydronaphthalen-1-ylcarbamoyl)pyridin-2-yl)phenyl)isophthalamide], the IC50 against rat NaP2b (SLC34A2) is less than 1000 nM. The IC50 at human NaP2b (SLC34A2) was less than 1000 nM. Besides, in data set [1], the AUC is less than 10 ng·h/mL and the Cmax was less than 10 ng/mL.

For the molecule `CCN(CC)c1ccc(NC(=O)c2cccc(Cn3ccc4c(C(=O)NCCOCCOCCOCCC(=O)O)cccc43)c2)c(-c2cc(C(=O)N[C@H]3CCCc4ccccc43)ccn2)c1` [Example 182, (S)-1-(1-(3-(4-(diethylamino)-2-(4-(1,2,3,4-tetrahydronaphthalen-1-ylcarbamoyl)pyridin-2-yl)phenylcarbamoyl)benzyl)-1H-indol-4-yl)-1-oxo-5,8,11-trioxa-2-azatetradecan-14-oic acid], the “% remaining, SGF” value in data set [2] is given as greater than 80%. Further, the “% remaining, SIF” value in data set [3] is greater than 80%.

For orientation: AUC means the area under the concentration-time curve, a measure of exposure. A word on the Cmax: it is the maximum level reached in the sampled fluid or tissue.
